In paper PMC9570109, “Improved Trimethylangelicin Analogs for Cystic Fibrosis: Design, Synthesis and Preliminary Screening” (International Journal of Molecular Sciences, 2022):

Experiments:
[1] = tested on: Salmonella typhimurium 1535; assay: Ames mutagenicity assay, plate incorporation, TA1535; format: cell-based
Description: (§1) The mutagenicity assay was performed for the test compounds following the plate incorporation method with the histidine-requiring Salmonella typhimurium mutant TA97A, TA98, TA100, and TA1535 strains purchased by Molecular Toxicology Inc. (Boone, NC, USA; moltox.com). All strains (100 µL per plate of fresh overnight cultures) were checked with and without the addition of 0.5 mL of a 5% S9 exogenous metabolic activator (S9 mix). The lyophilized post-mitochondrial supernatant S9 mix (Aroclor 1254-induced, Sprague–Dawley male rat liver in 0.154 M KCl solution), commonly used for the activation of pro-mutagens in mutagenic metabolites (Molecular Toxicology, Inc., Boone, NC, USA), was stored at −80 °C before use. The concentration tested for all the samples were 5, 10, 20, 50, and 100 µL/plate from a stock solution of 500 nM. A fully grown culture of the appropriate tester strain (0.1 mL) was added to 2 mL molten top agar (0.6% agar, 0.6% NaCl, 0.5 mM L-histidine/biotin solution) at 46 °C, together with 0.1 mL of each sample solution at different concentrations, and 0.5 mL S9 mix for assays with metabolic activation. The ingredients were thoroughly mixed and poured onto minimal glucose agar plates (1.5% agar in 2% Vogel–Bonner medium E with 5% glucose solution). DMSO was used as negative a control (100 µL/plate). Positive controls were prepared as follows: 2-aminoanthracene (2 µg/plate) and 2-nitrofluorene (2 µg/plate) for TA 97A, TA98 and TA1535 with and without metabolic activator (S9 mix), respectively; 2-aminoanthracene (2 µg/plate) and sodium azide (2 µg/plate) for TA100, with and without metabolic activator (S9 mix), respectively. The plates were incubated at 37 °C for 72 h and then his+ revertants were checked and counted using a Colony Counter 560 Suntex (Antibioticos, Italy). A sample was considered mutagenic when the observed number of colonies was at least twofold over the spontaneous level of revertants. All determinations were made in triplicate. Statistical analysis: relative standard deviations were calculated using the statistical software STATISTICA 6.0 (StatSoft, Italia srl, Vigonza, Italy). […]
(§2) Salmonella typhimurium TA97A Salmonella typhimurium TA98 Salmonella typhimurium TA100 Salmonella typhimurium 1535 […]
(§3) average SD t/c average SD t/c average SD t/c average SD t/c average SD t/c average SD t/c average SD t/c average SD t/c […]
(§4) *Significant values according to Ames computation (Maron & Ames, 1983); DMSO, C+: negative and positive controls respectively; SD: Standard Deviation; t/c: number of revertant colonies in treated plates/number of revertant colonies in […]

[2] = tested on: Salmonella typhimurium TA98; assay: Ames mutagenicity assay, plate incorporation, TA98; format: cell-based
Description: as §1, §2, §3, §4

[3] = tested on: Salmonella typhimurium TA100; assay: Ames mutagenicity assay, plate incorporation, TA100; format: cell-based
Description: as §1, §2, §3, §4

[4] = tested on: salmon testes DNA; assay: Photoadduct formation with DNA under UVA irradiation (TLC analysis); settings: 15 J/cm2 UVA
Description: The total energy that struck the sample was monitored by means of a radiometer (Variocontrol, Waldmann, Villingen-Schwenningen, Germany), equipped with a Variocontrol UV Sensor (Waldmann). The radiant power emitted by the UVA lamp was about […]. The samples were maintained at room temperature during irradiation.
The test compounds were dissolved in ethanol (2 mg/mL) and salmon testes DNA (Sigma-Aldrich) was dissolved in 10 mM NaCl and 1 mM EDTA solution (1.5 × 10^−3 M). Each test solution (250 μL) was added dropwise to the DNA solution (5 mL). The mixture was irradiated with 15 J/cm2 UVA light in a glass dish for 1 h. After irradiation, the DNA was precipitated with 1 M NaCl and two volumes of cold ethanol; the precipitated DNA was collected, washed with 80% ethanol, dried, and then dissolved in water. To obtain hydrolysis, the final solution was acidified with 1 M HCl, heated at 100 °C for 1 h, neutralized with NaOH and extracted three times with chloroform. Then, all of the organic layers were collected, dried under a high vacuum, and dissolved in ethanol. The hydrolyzed mixtures were separated by thin layer chromatography (TLC; F254 plates, 0.25 mm, Merck, Darmstadt, Germany) eluting with EtOAc/EtOH (9:1). The plates were analyzed with a Mineral Light Lamp VL-4LC VILBERT-LOURMAT (Vilber, Marne-la-Vallée, France).

[5] = 1535, +S9, 5 µL/plate of 500 nM stock
[6] = 1535, +S9, 10 µL/plate of 500 nM stock
[7] = 1535, +S9, 20 µL/plate of 500 nM stock
[8] = 1535, +S9, 50 µL/plate of 500 nM stock
[9] = 1535, +S9, 100 µL/plate of 500 nM stock
[10] = 1535, -S9, 5 µL/plate of 500 nM stock
[11] = 1535, -S9, 10 µL/plate of 500 nM stock
[12] = 1535, -S9, 20 µL/plate of 500 nM stock
[13] = 1535, -S9, 50 µL/plate of 500 nM stock
[14] = 1535, -S9, 100 µL/plate of 500 nM stock
[15] = TA98, +S9, 5 µL/plate of 500 nM stock
[16] = TA98, +S9, 10 µL/plate of 500 nM stock
[17] = TA98, +S9, 20 µL/plate of 500 nM stock
[18] = TA98, +S9, 50 µL/plate of 500 nM stock
[19] = TA98, +S9, 100 µL/plate of 500 nM stock
[20] = TA98, -S9, 5 µL/plate of 500 nM stock
[21] = TA98, -S9, 10 µL/plate of 500 nM stock
[22] = TA98, -S9, 20 µL/plate of 500 nM stock
[23] = TA98, -S9, 50 µL/plate of 500 nM stock
[24] = TA98, -S9, 100 µL/plate of 500 nM stock
[25] = TA100, +S9, 5 µL/plate of 500 nM stock
[26] = TA100, +S9, 10 µL/plate of 500 nM stock
[27] = TA100, +S9, 20 µL/plate of 500 nM stock
[28] = TA100, +S9, 50 µL/plate of 500 nM stock
[29] = TA100, +S9, 100 µL/plate of 500 nM stock
[30] = TA100, -S9, 5 µL/plate of 500 nM stock
[31] = TA100, -S9, 10 µL/plate of 500 nM stock
[32] = TA100, -S9, 20 µL/plate of 500 nM stock
[33] = TA100, -S9, 50 µL/plate of 500 nM stock
[34] = TA100, -S9, 100 µL/plate of 500 nM stock

Cc1cc(=O)oc2c1cc(-c1ccc(N)cc1)c1occ(C)c12 [pANDMA]
revertant colonies, average [1, 5]: 14.5 | t/c (revertant colonies treated/untreated plates) [1, 5]: 1.4 | revertant colonies, average [1, 6]: 17.0 | t/c (revertant colonies treated/untreated plates) [1, 6]: 1.6 | revertant colonies, average [1, 7]: 12.0 | t/c (revertant colonies treated/untreated plates) [1, 7]: 1.1 | revertant colonies, average [1, 8]: 13.0 | t/c (revertant colonies treated/untreated plates) [1, 8]: 1.2 | revertant colonies, average [1, 9]: 14.0 | t/c (revertant colonies treated/untreated plates) [1, 9]: 1.3 | revertant colonies, average [1, 10]: 17.5 | t/c (revertant colonies treated/untreated plates) [1, 10]: 1.6 | revertant colonies, average [1, 11]: 13.0 | t/c (revertant colonies treated/untreated plates) [1, 11]: 1.2 | revertant colonies, average [1, 12]: 5.5 | t/c (revertant colonies treated/untreated plates) [1, 12]: 0.5 | revertant colonies, average [1, 13]: 9.5 | t/c (revertant colonies treated/untreated plates) [1, 13]: 0.9 | revertant colonies, average [1, 14]: 10.0 | t/c (revertant colonies treated/untreated plates) [1, 14]: 0.9 | revertant colonies, average [2, 15]: 50.0 | t/c (revertant colonies treated/untreated plates) [2, 15]: 1.1 | revertant colonies, average [2, 16]: 48.0 | t/c (revertant colonies treated/untreated plates) [2, 16]: 1.0 | revertant colonies, average [2, 17]: 49.5 | t/c (revertant colonies treated/untreated plates) [2, 17]: 1.1 | revertant colonies, average [2, 18]: 51.0 | t/c (revertant colonies treated/untreated plates) [2, 18]: 1.1 | revertant colonies, average [2, 19]: 45.5 | t/c (revertant colonies treated/untreated plates) [2, 19]: 1.0 | revertant colonies, average [2, 20]: 40.5 | t/c (revertant colonies treated/untreated plates) [2, 20]: 1.0 | revertant colonies, average [2, 21]: 40.5 | t/c (revertant colonies treated/untreated plates) [2, 21]: 1.0 | revertant colonies, average [2, 22]: 43.5 | t/c (revertant colonies treated/untreated plates) [2, 22]: 1.1 | revertant colonies, average [2, 23]: 41.0 | t/c (revertant colonies treated/untreated plates) [2, 23]: 1.1 | revertant colonies, average [2, 24]: 39.0 | t/c (revertant colonies treated/untreated plates) [2, 24]: 1.0 | revertant colonies, average [3, 25]: 175.0 | t/c (revertant colonies treated/untreated plates) [3, 25]: 1.0 | revertant colonies, average [3, 26]: 181.5 | t/c (revertant colonies treated/untreated plates) [3, 26]: 1.1 | revertant colonies, average [3, 27]: 224.0 | t/c (revertant colonies treated/untreated plates) [3, 27]: 1.3 | revertant colonies, average [3, 28]: 232.0 | t/c (revertant colonies treated/untreated plates) [3, 28]: 1.4 | revertant colonies, average [3, 29]: 235.5 | t/c (revertant colonies treated/untreated plates) [3, 29]: 1.4 | revertant colonies, average [3, 30]: 192.0 | t/c (revertant colonies treated/untreated plates) [3, 30]: 1.0 | revertant colonies, average [3, 31]: 189.0 | t/c (revertant colonies treated/untreated plates) [3, 31]: 1.0 | revertant colonies, average [3, 32]: 204.5 | t/c (revertant colonies treated/untreated plates) [3, 32]: 1.0 | revertant colonies, average [3, 33]: 189.0 | t/c (revertant colonies treated/untreated plates) [3, 33]: 1.0 | revertant colonies, average [3, 34]: 165.5 | t/c (revertant colonies treated/untreated plates) [3, 34]: 0.8 | photoadduct formation with DNA upon UVA irradiation [4]: only the unchanged bands
